{
  "source": "patent US8933147B2",
  "about": "“Anti-microbial dental impression material” (3M Innovative Properties Company, priority 2005, dated 2015)",
  "key": {"[1]": {"tested_on": "Streptococcus mutans (DSM 20523)", "assay": "Laboratory model of impression taking: material set against filters loaded with Streptococcus mutans, rinsed, remaining growth on agar", "format": "cell-based", "design": "key: confluent growth, +++; many colonies, ++; few colonies, +; no growth, −", "settings": "Impregum Garant L DuoSoft", "method": "(§1) A laboratory system was worked out that models the clinical procedure of impression taking with concomitant contamination of the material, the removal of the material from the mouth and the subsequent cleaning by a brief rinse under tap water. The remaining contamination was determined by microbiological methods:\n(§2) Impression material was applied into sterile Petri dishes. Filters loaded with Streptococcus mutans (DSM 20523) or stimulated human saliva were contacted with the material during setting. A Strep. mutans concentration of approx. 5E9 CFU/ml was chosen which is similar to the microorganismsl number found salviva. After setting, the material was removed from the contaminated filter and briefly rinsed with sterile water.\n(§3) Remaining microorganisms were transferred to agar plates and the plates were incubated anaerobically at 37° C. to allow for growth of surviving microorganisms. Microorganisms growth was recorded as confluent growth, +++; many colonies, ++; few colonies, +; no growth, −."}, "[2]": {"tested_on": "salivary microorganisms", "assay": "Laboratory model of impression taking: material set against filters loaded with stimulated human saliva, rinsed, remaining growth on agar", "format": "cell-based", "design": "key: confluent growth, +++; many colonies, ++; few colonies, +; no growth, −", "settings": "Impregum Garant L DuoSoft", "method": "as §1, §2, §3"}, "[3]": {"settings": "Chlorhexidine 1.5 % in cured paste"}, "[4]": {"settings": "Chlorhexidine 3.6 % in cured paste"}},
  "data": [
    {"substance": "chlorhexidine diacetate hydrate [CHX diacetate hydrate]", "values": [
      {"measurement": "Growth of S. mutans (initial conc. 5E9 CFU/ml)", "setting": "[1]; Chlorhexidine 0.6-0.7 % in cured paste", "result": "−"},
      {"measurement": "Growth of S. mutans (initial conc. 5E9 CFU/ml)", "setting": "[1]; Chlorhexidine 0.8 % in cured paste", "result": "−"},
      {"measurement": "Growth of S. mutans (initial conc. 5E9 CFU/ml)", "setting": "[1]; [3]", "result": "−"},
      {"measurement": "Growth of S. mutans (initial conc. 5E9 CFU/ml)", "setting": "[1]; [4]", "result": "−"},
      {"measurement": "Growth of S. mutans (initial conc. 5E9 CFU/ml)", "setting": "[1]; Chlorhexidine <0.2 % in cured paste", "result": "+++"},
      {"measurement": "Growth of salivary microorganisms (initial conc. 5E7 CFU/ml)", "setting": "[2]; [3]", "result": "−"},
      {"measurement": "Growth of salivary microorganisms (initial conc. 5E7 CFU/ml)", "setting": "[2]; [4]", "result": "−"}
    ]}
  ]
}
